From patent publication US4092315A, “Novel crystalline forms of prazosin hydrochloride” (Pfizer Inc., priority 1976, dated 1978)
“Also recorded” adds a separate entry of the source.

How the values were obtained:
Format in all cases: physicochemical
[1] = Compressed disc (intrinsic) dissolution in water at 37° C.; details: slope between 4 and 10 minutes, 150 rpm, hydrochloride
Protocol: Compressed disc dissolution studies were carried out by means of the procedure developed by Hamlin et al., J. Pharm, Sci., 51, 432(1962). A 300 mg. sample of powder was compressed against a flat surface at 3000 psi. for 2 minutes into a flat round disc using a tablet die of 7/16 inch diameter. The die holding the compressed disc was stoppered at the open end and placed into a plastic holder. This assembly was then placed into a jar containing 1000 ml. of water equilibrated at 37° C. The stirring rate of a teflon paddle centered in the jar was maintained at 150 revolutions per minute. The solution was pumped continuously through a Millipore filter ([…] pore size) into a flow cell of a Beckman Acta II spectrophotometer which automatically recorded any absorbance changes at 246 nm.
Table VI compares the intrinsic dissolution rates of various forms of prazosin hydrochloride. The rates were determined from the slopes of the compressed disc dissolution profiles between 4 and 10 minutes.

[2] = Moisture uptake of anhydrate, monohydrate and dihydrate at room temperature, 75% relative humidity
Protocol: When samples of the anhydrate and monohydrate are stored at room temperature and 75% relative humidity they absorb moisture rapidly to form the dihydrate (8% water) in about 24 hours.

[3] = Conversion to hydrate on contact with water (microscopy, trituration); details: drop of water on microscope slide or excess of water, hydrochloride
Description: When samples of the α-, β- and γ- polymorphs are triturated with water the resulting product in each case is found to give an infrared spectrum identical to that of the prazosin hydrochloride hydrates.
The β-form consisted of dark, monoclinic crystals, while the γ-form and polyhydrate are both needle-like crystals.
This is in agreement with the above mentioned change in the infrared spectra of the α-, β-, γ- polymorphs to that of the hydrates of prazosin hydrochloride upon trituration of each of the crystalline polymorphs with water. Stability Studies

[4] = Hygroscopicity: water content (Karl Fischer) of samples on exposure to humidity; details: for Water Content: 37° C.; for hygroscopicity (in words): compared with the other forms
Protocol: Since moisture uptake affects integrity of a drug form, the α-, β- and γ- crystalline polymorphs of prazosin hydrochloride were compared for their relative hygroscopicity. Samples of each polymorph were placed in an open beaker and stored in a chamber maintained at 37° C. and 75% relative humidity. Portions were withdrawn periodically and their water content determined by the Karl Fischer method.

[5] = as above; details: room temperature, 20% relative humidity, initially 13.5% water
[6] = 5 days, 75% R.H., hydrochloride
[7] = 12 days, 75% R.H., hydrochloride
[8] = 25 days, 75% R.H., hydrochloride
[9] = 34 days, 75% R.H., hydrochloride

SMILES: COc1cc2nc(N3CCN(C(=O)c4ccco4)CC3)nc(N)c2cc1OC.Cl [methanolate, 2-[4-(2-furoyl)piperazin-1-yl]-4-amino-6,7-dimethoxyquinazoline hydrochloride]
- Intrinsic Dissolution Rate ([1]; listed as Methanolate): 2.68 μg/liter sec.

SMILES: COc1cc2nc(N3CCN(C(=O)c4ccco4)CC3)nc(N)c2cc1OC.Cl [dihydrate, 2-[4-(2-furoyl)piperazin-1-yl]-4-amino-6,7-dimethoxyquinazoline hydrochloride]
- equilibrium water content ([2]; after 4 days, room temperature, 75% relative humidity): 13.5%

SMILES: COc1cc2nc(N3CCN(C(=O)c4ccco4)CC3)nc(N)c2cc1OC.Cl [β-form, 2-[4-(2-furoyl)piperazin-1-yl]-4-amino-6,7-dimethoxyquinazoline hydrochloride]
- conversion to hydrate on contact with water (in words) ([3]; listed as β-): sharp needle-like crystals of hydrate grew
- Intrinsic Dissolution Rate ([1]; listed as β-): 3.36 μg/liter sec.
- Water Content [4, 6]: 0.59 % by Weight
- Water Content [4, 7]: 1.18 % by Weight
- Water Content [4, 8]: 4.66 % by Weight
- Water Content [4, 9]: 6.06 % by Weight
- hygroscopicity (in words) ([4]; hydrochloride): hygroscopic

SMILES: COc1cc2nc(N3CCN(C(=O)c4ccco4)CC3)nc(N)c2cc1OC.Cl [polyhydrate, 2-[4-(2-furoyl)piperazin-1-yl]-4-amino-6,7-dimethoxyquinazoline hydrochloride]
- Water Content ([5]; 18 days): 13.0%
- Water Content ([5]; 35 days): 13.1%
- Intrinsic Dissolution Rate ([1]; listed as Polyhydrate): 2.57 μg/liter sec.
- Water Content ([4]; 10 days, 75% relative humidity, initially 13.7% water): 13.2%
- Water Content ([4]; 23 days, 75% relative humidity, initially 13.7% water): 13.4%
- moisture ([4]; other samples exposed to high humidity): up to 15%

SMILES: COc1cc2nc(N3CCN(C(=O)c4ccco4)CC3)nc(N)c2cc1OC.Cl [anhydrate, 2-[4-(2-furoyl)piperazin-1-yl]-4-amino-6,7-dimethoxyquinazoline hydrochloride]
- Intrinsic Dissolution Rate ([1]; listed as Anhydrate): 2.35 μg/liter sec.
- water content on storage (dihydrate formed) ([2]; about 24 hours, room temperature, 75% relative humidity): 8%
- time to form the dihydrate ([2]; room temperature, 75% relative humidity): about 24 hours

SMILES: COc1cc2nc(N3CCN(C(=O)c4ccco4)CC3)nc(N)c2cc1OC.Cl [α-form, 2-[4-(2-furoyl)piperazin-1-yl]-4-amino-6,7-dimethoxyquinazoline hydrochloride]
- conversion to hydrate on contact with water (in words) [3]: converted to the polyhydrate
- conversion to hydrate on contact with water (in words) ([3]; listed as α-): sharp needle-like crystals of hydrate grew
- Intrinsic Dissolution Rate ([1]; listed as α-): 3.25 μg/liter sec.
- Water Content [4, 6]: 0.32 % by Weight
- Water Content [4, 7]: 0.85 % by Weight
- Water Content [4, 8]: 1.18 % by Weight
- Water Content [4, 9]: 1.54 % by Weight
- hygroscopicity (in words) ([4]; hydrochloride): relatively non-hydroscopic when compared with the β- and γ-forms; also recorded: non-hygroscopic

SMILES: COc1cc2nc(N3CCN(C(=O)c4ccco4)CC3)nc(N)c2cc1OC.Cl [monohydrate, 2-[4-(2-furoyl)piperazin-1-yl]-4-amino-6,7-dimethoxyquinazoline hydrochloride]
- reversion upon exposure to moist air (in words) ([2]; exposure to moist air): revert to polyhydrate

SMILES: COc1cc2nc(N3CCN(C(=O)c4ccco4)CC3)nc(N)c2cc1OC.Cl [γ-form, 2-[4-(2-furoyl)piperazin-1-yl]-4-amino-6,7-dimethoxyquinazoline hydrochloride]
- conversion to hydrate on contact with water (in words) ([3]; listed as γ-forms): sharp needle-like crystals of hydrate grew
- Intrinsic Dissolution Rate ([1]; listed as γ-): 2.35 μg/liter sec.
- Water Content [4, 6]: 0.16 % by Weight
- Water Content [4, 7]: 4.61 % by Weight
- Water Content [4, 8]: 9.47 % by Weight
- Water Content [4, 9]: 9.05 % by Weight
- hygroscopicity (in words) ([4]; hydrochloride): more hygroscopic then the β-form
- change of form on exposure to moisture (in words) ([4]; infrared spectrum (KBr) after exposure to moisture): formation of a hydrate
